Test results: ChEMBL document CHEMBL1126161, “3,4-Dihydroquinolin-2(1H)-ones as combined inhibitors of thromboxane A2 synthase and cAMP phosphodiesterase” (J Med Chem, 1992)
Where “and” joins values, the source holds several entries; their conditions need not be identical. Equal entries are not always repeated.

What was measured:
Homo sapiens [1] = species on record: Homo sapiens; test: In vitro inhibition of ADP-induced aggregation of human PRP in the presence of pig aortal microsomes (PAM).; format: functional
Thromboxane-A synthase [2] = molecular target: T1, Thromboxane-A synthase (Homo sapiens, UniProt P24557); test: Compound was evaluated for the inhibition of human blood platelet, thromboxane A2 synthase
T1 sequence (P24557 whole entry): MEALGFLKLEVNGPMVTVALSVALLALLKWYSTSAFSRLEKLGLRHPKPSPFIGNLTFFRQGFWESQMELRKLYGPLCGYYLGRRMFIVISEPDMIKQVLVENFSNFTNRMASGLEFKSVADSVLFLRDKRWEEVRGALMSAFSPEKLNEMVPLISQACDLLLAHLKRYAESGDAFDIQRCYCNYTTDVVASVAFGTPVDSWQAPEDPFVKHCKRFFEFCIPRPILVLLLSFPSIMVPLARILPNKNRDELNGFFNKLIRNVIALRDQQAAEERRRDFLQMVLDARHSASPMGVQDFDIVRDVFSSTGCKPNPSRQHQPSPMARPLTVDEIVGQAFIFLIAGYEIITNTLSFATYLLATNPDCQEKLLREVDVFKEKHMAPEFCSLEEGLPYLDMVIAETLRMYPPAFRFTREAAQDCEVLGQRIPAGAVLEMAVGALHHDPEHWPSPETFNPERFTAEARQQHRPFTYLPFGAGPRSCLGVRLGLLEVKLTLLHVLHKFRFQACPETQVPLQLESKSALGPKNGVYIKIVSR

Phosphodiesterase 3 = Phosphodiesterase 3 (Homo sapiens, UniProt Q14432+Q13370); test: Inhibition of human blood platelet c-AMP phosphodiesterase
Thromboxane-A synthase [3] = molecular target: T1, Thromboxane-A synthase; test: Compound was evaluated for the inhibition of human blood platelet thromboxane A2 synthase
Rattus norvegicus [4] = test: Antihypertensive activity in conscious spontaneously hypertensive rat (SHR), percent change in Systolic blood pressure (SBP) after 2 hr at 10 mg/kg peroral dose; format: functional; settings: route oral
Rattus norvegicus [5] = test: Antihypertensive activity in conscious spontaneously hypertensive rat (SHR), percent change in heart rate (beats/min) after 2 hr at 10 mg/kg peroral dose; format: functional; settings: route oral
Homo sapiens [6] = species on record: Homo sapiens; test: Ratio of IC50(w/oPAM)/IC50(w/PAM); format: functional
Rattus norvegicus [7] = test: Antihypertensive activity in conscious spontaneously hypertensive rat (SHR), percent change in Systolic blood pressure (SBP) after 1 hr; format: functional; design: concentration or dose not given beside the values
Rattus norvegicus [8] = test: Antihypertensive activity in conscious spontaneously hypertensive rat (SHR), percent change in heart rate (beats/min) after 4 hr at 10 mg/kg peroral dose; format: functional; settings: route oral
Homo sapiens [9] = species on record: Homo sapiens; test: Inhibition of ADP-induced aggregation of human PRP in the absence of pig aortal microsomes (PAM); format: functional
Rattus norvegicus [10] = test: Antihypertensive activity in conscious spontaneously hypertensive rat (SHR), percent change in heart rate (beats/min) after 1 hr at 10 mg/kg peroral dose; format: functional; settings: route oral
Rattus norvegicus [11] = test: Antihypertensive activity in conscious spontaneously hypertensive rat (SHR), percent change in Systolic blood pressure (SBP) after 4 hr at 10 mg/kg peroral dose; format: functional; settings: route oral
Homo sapiens [12] = species on record: Homo sapiens; test: (§1) Ratio of IC50(PDE)/IC50(TXA2); format: functional
Homo sapiens [13] = species on record: Homo sapiens; test: as §1
Mus musculus [14] = test: Protection against mortality in pulmonary thromboembolism model in mice at 9 mg/kg; format: functional
Mus musculus [15] = test: Protection against mortality in pulmonary thromboembolism model in mice at 1 mg/kg; format: functional
Mus musculus [16] = test: Protection against mortality in pulmonary thromboembolism model in mice at 3 mg/kg; format: functional
Rattus norvegicus [17] = test: Antihypertensive activity in conscious spontaneously hypertensive rat (SHR), percent change in Systolic blood pressure (SBP) after 1 hr at 10 mg/kg peroral dose; format: functional; settings: route oral

For CCCCCC(Cc1cccnc1)c1ccc2c(c1)CCC(=O)N2 (configuration not stated), the IC50 (Homo sapiens [1]) was 37 µM.

For CC(Cc1cccnc1)c1ccc2c(c1)CCC(=O)N2 (configuration not stated), the IC50 (Homo sapiens [1]) was 35 µM.

O=c1ccc2cc(/C=C/n3ccnc3)ccc2[nH]1 gave an IC50 (Thromboxane-A synthase [2]) of 0.38 µM.

Compound CCCCCC(Cn1ccnc1)c1ccc2c(c1)CCC(=O)N2 (configuration not stated) has an IC50 (Phosphodiesterase 3) of 14 µM, an IC50 (Thromboxane-A synthase [3]) of 25 µM and an IC50 (Homo sapiens [1]) of 25 µM.

In the case of C/C(=C\c1cccnc1)c1ccc2c(c1)CCC(=O)N2, the “Change systolic BP” value (Rattus norvegicus [4]) is reported as -15%, the “Change in heart rate” value (Rattus norvegicus [5]) is reported as 20% and the Ratio (Homo sapiens [6]) is reported as 41. The “Change systolic BP” value (Rattus norvegicus [7]) was -19% and -16%, the IC50 (Homo sapiens [1]) was 2.2 µM and the “Change in heart rate” value (Rattus norvegicus [8]; 10 mg/kg) was 12% and 25%. The IC50 (Homo sapiens [9]) was 90 µM.

With O=C1CCc2cc(C#CCn3ccnc3)ccc2N1 the “Change systolic BP” value (Rattus norvegicus [4]) was -5%, the “Change in heart rate” value (Rattus norvegicus [5]) was 11% and the “Change systolic BP” value (Rattus norvegicus [7]) was -3%. The “Change in heart rate” value (Rattus norvegicus [10]) was 9%, the “Change systolic BP” value (Rattus norvegicus [11]) was -15% and the “Change in heart rate” value (Rattus norvegicus [8]) was 11%.

O=C1CCc2cc(C#Cc3cccnc3)ccc2N1 was tested, and the “Change systolic BP” value (Rattus norvegicus [4]) was -6%, the “Change in heart rate” value (Rattus norvegicus [5]) was 15% and the Ratio (Homo sapiens [6]) was 22. For the same compound, the “Change systolic BP” value (Rattus norvegicus [7]) was -13%, the IC50 (Homo sapiens [1]) was 11 µM and the “Change in heart rate” value (Rattus norvegicus [10]) was 4%. The “Change systolic BP” value (Rattus norvegicus [11]) was -5%, the “Change in heart rate” value (Rattus norvegicus [8]) was 22% and the IC50 (Homo sapiens [9]) was 240 µM.

C/C(=C\n1ccnc1)c1ccc2c(c1)CCC(=O)N2 gave a Ratio (Homo sapiens [6]) of 8.1, an IC50 (Homo sapiens [1]) of 1.6 µM and an IC50 (Homo sapiens [9]) of 13 µM.

For Oc1ccc2cc(/C=C/n3ccnc3)ccc2n1, the IC50 (Phosphodiesterase 3) was 4 µM, the Ratio (Homo sapiens [6]) was 7.4 and the IC50 (Homo sapiens [1]) was 0.38 µM. The Ratio (Homo sapiens [12]) was 10.5 and the IC50 (Homo sapiens [9]) was 2.8 µM.

CCCCC/C(=C\c1cccnc1)c1ccc2c(c1)CCC(=O)N2 gave an IC50 (Homo sapiens [1]) of 58 µM.

For O=C1CCc2cc(C(Cn3ccnc3)c3ccccc3)ccc2N1 (configuration not stated), the IC50 (Homo sapiens [1]) was 200 µM.

Work on O=C1CCc2cc(C(c3ccccc3)n3ccnc3)ccc2N1 (configuration not stated) yielded an IC50 (Phosphodiesterase 3) of 40 µM, a Ratio (Homo sapiens [13]) of 114 and a survival at 9 mg/kg (Mus musculus [14]) of 40%. For the same compound, the IC50 (Homo sapiens [1]) was 0.35 µM, the IC50 (Thromboxane-A synthase [2]) was 0.35 µM and the survival at 1 mg/kg (Mus musculus [15]) was 20%. It also gave an IC50 (Homo sapiens [9]) of 44 µM and a survival at 3 mg/kg (Mus musculus [16]) of 20%.

With Cc1[nH]c(=O)c(C#N)cc1-c1ccncc1 [MILRINONE] the “Change systolic BP” value (Rattus norvegicus [4]) was -54%, the “Change in heart rate” value (Rattus norvegicus [5]) was 36% and the “Change in heart rate” value (Rattus norvegicus [10]) was 11%. For the same compound, the “Change systolic BP” value (Rattus norvegicus [17]) was -65%, the “Change systolic BP” value (Rattus norvegicus [11]) was -47% and the “Change in heart rate” value (Rattus norvegicus [8]) was 45%.
